In US12599559B2, “CD1d-ligand-compound-containing liposome preparation having improved pharmacokinetics” (REGiMMUNE Corporation, priority 2020, dated 2026):
Where two headings read alike, the source gives them in different places.

Experiment: pharmacokinetics in human clinical trials, plasma KRN7000 by LC-MS/MS
Assay type: in vivo
Conditions: patients; for Cmax / AUC(0-t): plasma, iv
Description: In a phase I clinical trial, RGI-2001-001 was administered intravenously at a dose of 100 μg/kg as KRN7000 within 30 minutes after transplantation to six patients who had received hematopoietic stem cell transplantation. 2 mL of peripheral blood was collected before and 0.5, 1, 2, 4, 6, 8, 24, 48, 72, and 96 hours after transplantation, respectively, and plasma components were collected. KRN7000 in each plasma was separated and identified by liquid chromatography-mass spectrometry (LC-MS/MS).
Similarly, RGI-2001-003 was administered intravenously at a dose of 100 μg/kg as KRN7000 within 30 minutes after transplantation to seven patients who had received hematopoietic stem cell transplantation, and 2 mL of peripheral blood was collected before and 0.5, 2, 4, 6, 8, 24, and 48 hours after transplantation. Plasma components were collected, and plasma KRN7000 was separated and identified by LC-MS/M. These patients were treated with RGI-2001-003 at a dose of 100 μg/kg as KRN7000 intravenously once a week for 5 to 6 consecutive doses. For the administration on day 14, 2 mL of peripheral blood was collected before and 0.5 and 4 hours after administration, respectively, plasma components were collected, and plasma KRZN7000 was separated and identified by LC-MS/M. The NKT response and the number of activated Tregs (Ki-67+%) in patients treated with RGI-2001-003 administration were monitored over time.

[1] = 100 ug/kg, plasma KRN7000 after RGI-2001-003 iv 100 μg/kg weekly, Day 0

CCCCCCCCCCCCCCCCCCCCCCCCCC(=O)N[C@@H](CO[C@H]1OC(CO)[C@H](O)C(O)C1O)[C@H](O)[C@H](O)CCCCCCCCCCCCCC (stereo partly drawn) [KRN7000, (2S,3S,4R)-1-o-(α-D-galactopyranosyl)-2-(N-hexacosanoylamino)-1,3,4-octadecanetriol]
concentration at 14 day (100 μg/kg as KRN7000, plasma KRN7000 after RGI-2001-003 iv 100 μg/kg weekly, Day 14, read-out: Cmin): 34.1 ng/mL | half-life [1]: 35.8 h | AUC(0-inf) (100 ug/kg, plasma KRN7000 after RGI-2001-003 iv 100 μg/kg weekly, Day 0, read-out: *Est. AUC0-inf): 42500 ng·h/mL | Cmax [1]: 881 ng/mL | AUC(0-t) (100 ug/kg, plasma KRN7000 after RGI-2001-003 iv 100 μg/kg weekly, Day 0, read-out: AUC0-4): 3000 ng·h/mL | Cmax (100 ug/kg, plasma KRN7000 after RGI-2001-003 iv 100 μg/kg weekly, Day 14): 570 ng/mL | AUC(0-t) (100 ug/kg, plasma KRN7000 after RGI-2001-003 iv 100 μg/kg weekly, Day 14, read-out: AUC0-4): 1890 ng·h/mL
